Experimental data reported in PMC10630888, “Nuclear ERK1/2 signaling potentiation enhances neuroprotection and cognition via Importinα1/KPNA2” (EMBO Molecular Medicine, 2023).
Where “and” joins values, the source holds several entries; their conditions need not be identical. Equal entries are not always repeated.

How the values were obtained:
[1] = system: S6 (Ser235/236) phosphorylation; assay: Striatal pS6 (Ser235/236) immunofluorescence 1 h after single injection; assay type: in vivo, mouse; settings: single injection 20 mg/kg i.p., individual mice
Procedure: Immunofluorescence was performed as described in Papale et al ([2016]). Briefly, 1 h after blocking in 5% normal goat serum, slices were incubated overnight at 4°C with the following primary antibodies: anti‐phospho (Ser10)‐acetylated (Lys14) histone H3 (1:1,000, Millipore), anti‐phospho‐S6 ribosomal protein (Ser235/236) (1:200, Cell Signaling Technology) anti‐phospho‐S6 ribosomal protein (Ser240/244) (1:200, Cell Signaling), cleaved caspase‐3 (1:200, Cell Signaling Technology), anti‐mutant Huntingtin (1:100, Developmental Studies Hybridoma Bank, University of Iowa, #MW8), and NeuN (1:1,000, Millipore). Corresponding secondary antibodies (Alexa Fluor 546 conjugated anti‐mouse (1:200, Thermo Fisher Scientific), Alexa Fluor 488 conjugated anti‐rabbit (1:500, Thermo Fisher Scientific) and Pacific Blue goat anti‐mouse (1:200, Thermo Fisher Scientific) were incubated at room temperature for 1 h. Sections stained for mutant Huntingtin were incubated with DAPI for 20 min. Sections were subsequently mounted with fluorescent mounting medium (DAKO). Single and double‐labeled images ([…]) were obtained at 40× magnification from the striatum using a laser scanning confocal microscope (Leica SP2) equipped with the corresponding lasers and appropriate filter sets to avoid the crosstalk between the fluorochromes.
(§1) In ex‐vivo and in‐vivo immunofluorescence experiments, the number of p‐S6 or p‐AcH3 immunoreactive neurons among NeuN‐positive neurons was counted in 2–3 consecutive striatal sections per mouse in four fields per section. Caspase 3‐positive cells were quantified among NeuN‐positive neurons in each slide and expressed as percentage (ratio between caspase‐3‐positive cells and total NeuN‐positive neurons) for each field acquired through the slide. The number of cells showing mutant Huntingtin inclusions were expressed as a percentage of mutant Huntingtin‐positive cells among DAPI‐positive cells.

[2] = system: cleaved caspase-3; assay: Cleaved caspase-3 in striatum, 3-NP model with RB5; assay type: in vivo, mouse; settings: peptide 20 mg/kg i.p. twice a day plus 3-NP 50 mg/kg i.p. once a day, 7 days; individual mice
Excerpt: as §1

[3] = system: p-ERK1/2 in CTIP2+ neurons; assay: p-ERK1/2 in CTIP2+ iPSC-derived HD MSNs; assay type: cell-based, human; settings: for p-ERK1/2 in CTIP2+ neurons (Fig 5 panel f): individual replicates
Procedure: The human induced pluripotent stem cell line CS09iHD109‐n1 (herein referred to as Q109N1) was originally generated from a human fibroblast line ND39258 (RRID:CVCL_ZC78) with an expanded HTT allele initially containing 109 pure CAG trinucleotides, and the isogenic control lines used were derived by CRISPR gene‐edit to reduce the CAG repeat length to 20 repeats (Mattis et al, [2015]). IPSCS were cultured on hESC‐qualified Matrigel (Corning) in E8‐Flex medium (Thermo Fisher) and passaged with RelesR (Stem Cell Technologies) according to the manufacturer's instructions. For neural differentiation iPSCS were grown to 70% confluency and then treated with 10 μM Y‐27632 (Tocris) for 1 h before harvesting by dissociation to a single cell suspension using accutase (Sigma). IPSCs were replated onto fresh Matrigel‐coated plates at a split ratio of 1:2, in E8‐Flex medium containing 10 μM Y‐27632. After overnight culture, IPSCs at 80–90% confluency were washed with PBS pH 7.4 (Gibco) and then switched to neural induction medium (Advanced DMEM/F12 (1:1) supplemented with 2 mM GlutamaxTM (Gibco), 2% Neurobrew without vitamin A (Miltenyi), 10 μM SB431542, 1 μM LDN 193189 (both Stem Cell Technologies), and 1.5 μM IWR1 (Tocris)). Medium was changed daily until day 8, when cells were passaged 1:2 by cell dissociation with Accutase for 5 min at 37°C and replated on Matrigel® coated plates in LIA medium containing (Advanced DMEM/F12 (1:1) supplemented with 2 mM GlutamaxTM, 2% Neurobrew without vitamin A, 0.2 μM LDN 193189, 1.5 μM IWR1, and 20 ng/ml Activin A (Peprotech)). At day 16, cells were plated for neuronal differentiation according to (Telezhkin et al, [2016]). […]
Images were acquired using a confocal microscope (Zeiss LSM710) under a 20× objective and analyzed with ImageJ software.

Sequence: GRKKRRQRRRPPQGGGGGEPRRTEGVGPGVPGEVEMVKGQPFDV [RB5, six D-amino acids, acetylated N-terminus]
- pS6 (Ser235/236) positive neurons in striatum ([1]; ERK1+/+ (WT) mice): comparable in both genotypes
- pS6 (Ser235/236) positive neurons in striatum ([1]; ERK1-/- mice): comparable in both genotypes
- pS6 (Ser235/236) positive neurons in striatum ([1]; 1 h): slightly reduced
- Cleaved caspase-3-positive cells among NeuN-positive neurons [2]: significantly reduced neuronal death
- p-ERK1/2 in CTIP2+ neurons (Fig 5 panel f) ([3]; CTR iPSC-derived MSNs): 40.5874 and 43.5065 and 59.0476 and 55.7538 and 63.8384 and 58.6194
- p-ERK1/2 in CTIP2+ neurons ([3]; HD and isogenic control iPSC-derived MSNs, 50 μM, 30 min): induced ERK activation
- p-ERK1/2 in CTIP2+ neurons (Fig 5 panel f) ([3]; HD iPSC-derived MSNs): 50.2062 and 59.3301 and 53.5036 and 55.8187 and 47.3002 and 65.1771
